Reference: the supplement of paper PMC4862054

How the values were obtained:
Conditions in all cases: 72 h
[1] = tested on: HDQ-P1
Experimental: (§1)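 Drug sensitivity and resistance testing (DSRT) of breast cancer cell lines in 384-well plates, 5 concentrations in 10-fold dilutions over a compound-specific 10,000-fold range. After 72 h, cytotoxicity was read by CellTox Green fluorescence and viability by CellTiter-Glo luminescence (multiplexed), normalised to DMSO and benzethonium chloride controls. EC50 is the inflection point of the fitted dose-response curve (bottom asymptote free, so it can be relative for partial curves) and is censored at the highest tested concentration. Rows with DSS 0 (no meaningful response) were excluded.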

[2] = tested on: BT-549
Experimental: as §1

[3] = tested on: MDA-MB-231
Experimental: as §1

[4] = tested on: CAL-85-1
Experimental: as §1

[5] = tested on: MDA-MB-468
Experimental: as §1

[6] = tested on: CAL-51
Experimental: as §1

[7] = tested on: Hs578T
Experimental: as §1

[8] = tested on: MFM-223
Experimental: as §1

[9] = tested on: MCF-10A
Experimental: as §1

[10] = tested on: HCC1937
How it was run: (§2)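 To measure viability, fluorescence at 560/590 nm was read after 2.5 µl CellTiter-Blue had been added for 2 h at 37 °C. Cells from breast cancer lines had been seeded in 20 µl suspension onto 384-well plates pre-loaded with compound dissolved in 5 µl medium and kept for 72 h. EC50 comes from a fitted percent-inhibition dose-response curve censored at the highest concentration, after per-plate normalisation to vehicle and a positive kill control, Z'-factor checks, and removal of rows with zero drug sensitivity score.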

[11] = tested on: SK-BR-3
How it was run: as §2

[12] = tested on: BT-549; remark: listed apart in the source
How it was run: as §2

[13] = tested on: MDA-MB-436
How it was run: as §2

[14] = tested on: MDA-MB-231; remark: listed apart in the source
How it was run: as §2

[15] = tested on: MDA-MB-468; remark: listed apart in the source
How it was run: as §2

[16] = tested on: HCC1599
How it was run: as §2

[17] = tested on: BT-474
How it was run: as §2

[18] = tested on: Hs578T; remark: listed apart in the source
How it was run: as §2

[19] = tested on: HCC1143
How it was run: as §2

[20] = tested on: MFM-223; remark: listed apart in the source
How it was run: as §2

[21] = tested on: CAL-120
How it was run: as §2

[22] = tested on: MDA-MB-453
How it was run: (§3)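 Per-plate normalisation used 0.1 % DMSO and a positive kill control. Breast cancer cell lines (20 µl suspension) were seeded into 384-well plates containing compound at 5 concentrations in 10-fold steps across a compound-specific 10,000-fold range, incubated for 72 h, and read first for CellTox Green fluorescence (485/520 nm), then for CellTiter-Glo luminescence. EC50 was fitted from the dose-response curves and censored at the top concentration.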

[23] = tested on: HCC1937; remark: listed apart in the source
How it was run: as §3

[24] = tested on: SK-BR-3; remark: listed apart in the source
How it was run: as §3

[25] = tested on: CAL-148
How it was run: as §3

[26] = tested on: BT-549; remark: listed apart in the source
How it was run: as §3

[27] = tested on: MDA-MB-436; remark: listed apart in the source
How it was run: as §3

[28] = tested on: MDA-MB-231; remark: listed apart in the source
How it was run: as §3

[29] = tested on: CAL-85-1; remark: listed apart in the source
How it was run: as §3

[30] = tested on: DU-4475
How it was run: as §3

[31] = tested on: HCC1599; remark: listed apart in the source
How it was run: as §3

[32] = tested on: CAL-51; remark: listed apart in the source
How it was run: as §3

[33] = tested on: Hs578T; remark: listed apart in the source
How it was run: as §3

[34] = tested on: HCC1143; remark: listed apart in the source
How it was run: as §3

[35] = tested on: MFM-223; remark: listed apart in the source
How it was run: as §3

[36] = tested on: CAL-120; remark: listed apart in the source
How it was run: as §3

[37] = tested on: MCF-10A; remark: listed apart in the source
How it was run: as §3

[38] = tested on: MDA-MB-453; remark: listed apart in the source
How it was run: as §2

[39] = tested on: CAL-148; remark: listed apart in the source
How it was run: as §2

[40] = tested on: HDQ-P1; remark: listed apart in the source
How it was run: as §2

[41] = tested on: CAL-85-1; remark: listed apart in the source
How it was run: as §2

[42] = tested on: DU-4475; remark: listed apart in the source
How it was run: as §2

[43] = tested on: CAL-51; remark: listed apart in the source
How it was run: as §2

[44] = tested on: MDA-MB-436; remark: listed apart in the source
Experimental: as §1

[45] = tested on: DU-4475; remark: listed apart in the source
Experimental: as §1

[46] = tested on: CAL-120; remark: listed apart in the source
Experimental: as §1

## CC(C)(C)c1cnc(CSc2cnc(NC(=O)C3CCNCC3)s2)o1 [SNS-032]
[1]
  EC50, CellTox Green: 32.2 nM
[2]
  EC50, CellTox Green: 255 nM
[3]
  EC50, CellTox Green: 30.9 nM
[4]
  EC50, CellTox Green: 41.2 nM
[5]
  EC50, CellTox Green: 7580 nM
[6]
  EC50, CellTox Green: 11.1 nM
[7]
  EC50, CellTox Green: 85.8 nM
[8]
  EC50, CellTox Green: 142 nM
[9]
  EC50, CellTox Green: 172 nM
[10]
  EC50, CellTiter-Blue viability: 79.7 nM
[11]
  EC50, CellTiter-Blue viability: 123 nM
[12]
  EC50, CellTiter-Blue viability: 249 nM
[13]
  EC50, CellTiter-Blue viability: 376 nM
[14]
  EC50, CellTiter-Blue viability: 133 nM
[15]
  EC50, CellTiter-Blue viability: 353 nM
[16]
  EC50, CellTiter-Blue viability: 150 nM
[17]
  EC50, CellTiter-Blue viability: 168 nM
[18]
  EC50, CellTiter-Blue viability: 101 nM
[19]
  EC50, CellTiter-Blue viability: 206 nM
[20]
  EC50, CellTiter-Blue viability: 169 nM
[21]
  EC50, CellTiter-Blue viability: 160 nM
[22]
  EC50, CellTiter-Glo: 41.1 nM
[23]
  EC50, CellTiter-Glo: 87.8 nM
[24]
  EC50, CellTiter-Glo: 61.4 nM
[25]
  EC50, CellTiter-Glo: 33.2 nM
[26]
  EC50, CellTiter-Glo: 41.9 nM
[27]
  EC50, CellTiter-Glo: 46.8 nM
[28]
  EC50, CellTiter-Glo: 54.1 nM
[29]
  EC50, CellTiter-Glo: 62.8 nM
[30]
  EC50, CellTiter-Glo: 203 nM
[31]
  EC50, CellTiter-Glo: 233 nM
[32]
  EC50, CellTiter-Glo: 17.1 nM
[33]
  EC50, CellTiter-Glo: 101 nM
[34]
  EC50, CellTiter-Glo: 46.5 nM
[35]
  EC50, CellTiter-Glo: 137 nM
[36]
  EC50, CellTiter-Glo: 102 nM
[37]
  EC50, CellTiter-Glo: 157 nM
[38]
  EC50, CellTiter-Blue viability: 125 nM
[39]
  EC50, CellTiter-Blue viability: 128 nM
[40]
  EC50, CellTiter-Blue viability: 110 nM
[41]
  EC50, CellTiter-Blue viability: 128 nM
[42]
  EC50, CellTiter-Blue viability: 203 nM
[43]
  EC50, CellTiter-Blue viability: 571 nM

## Nc1nc2[nH]cnc2c(=S)[nH]1 [Thioguanine]
[10]
  EC50, CellTiter-Blue viability: 6660 nM
[11]
  EC50, CellTiter-Blue viability: 9940 nM
[12]
  EC50, CellTiter-Blue viability: 9860 nM
[13]
  EC50, CellTiter-Blue viability: 667 nM
[14]
  EC50, CellTiter-Blue viability: 212 nM
[15]
  EC50, CellTiter-Blue viability: 748 nM
[18]
  EC50, CellTiter-Blue viability: 6560 nM
[21]
  EC50, CellTiter-Blue viability: 1140 nM
[22]
  EC50, CellTiter-Glo: 4690 nM
[23]
  EC50, CellTiter-Glo: 729 nM
[25]
  EC50, CellTiter-Glo: 1720 nM
[26]
  EC50, CellTiter-Glo: 9550 nM
[27]
  EC50, CellTiter-Glo: 4730 nM
[28]
  EC50, CellTiter-Glo: 491 nM
[29]
  EC50, CellTiter-Glo: 841 nM
[30]
  EC50, CellTiter-Glo: 4330 nM
[31]
  EC50, CellTiter-Glo: 3450 nM
[32]
  EC50, CellTiter-Glo: 2310 nM
[33]
  EC50, CellTiter-Glo: 1350 nM
[34]
  EC50, CellTiter-Glo: 4320 nM
[36]
  EC50, CellTiter-Glo: 1320 nM
[39]
  EC50, CellTiter-Blue viability: 6600 nM
[41]
  EC50, CellTiter-Blue viability: 1350 nM
[43]
  EC50, CellTiter-Blue viability: > 10000 nM

## C[C@]12CC[C@@H]3c4ccc(OC(=O)N(CCCl)CCCl)cc4CC[C@H]3[C@@H]1CC[C@@H]2O [Estramustine]
[5]
  EC50, CellTox Green: 4990 nM
[6]
  EC50, CellTox Green: 131 nM

## Nc1ncn([C@@H]2O[C@H](CO)[C@@H](O)[C@H]2O)c(=O)n1 [Azacitidine]
[44]
  EC50, CellTox Green: > 10000 nM
[5]
  EC50, CellTox Green: 595 nM
[10]
  EC50, CellTiter-Blue viability: > 10000 nM
[12]
  EC50, CellTiter-Blue viability: 2570 nM
[13]
  EC50, CellTiter-Blue viability: 1060 nM
[15]
  EC50, CellTiter-Blue viability: 650 nM
[18]
  EC50, CellTiter-Blue viability: 6120 nM
[21]
  EC50, CellTiter-Blue viability: > 10000 nM
[26]
  EC50, CellTiter-Glo: 1280 nM
[27]
  EC50, CellTiter-Glo: 1120 nM
[31]
  EC50, CellTiter-Glo: 1290 nM

## COc1cc(F)c(F)c(Nc2ccc(I)cc2F)c1NS(=O)(=O)C1(C[C@H](O)CO)CC1 [Refametinib]
[3]
  EC50, CellTox Green: 23.2 nM
[4]
  EC50, CellTox Green: 788 nM
[5]
  EC50, CellTox Green: 2690 nM
[45]
  EC50, CellTox Green: 110 nM
[46]
  EC50, CellTox Green: > 10000 nM
[23]
  EC50, CellTiter-Glo: 5050 nM
[25]
  EC50, CellTiter-Glo: 6680 nM
[26]
  EC50, CellTiter-Glo: 2210 nM
[27]
  EC50, CellTiter-Glo: 6630 nM
[28]
  EC50, CellTiter-Glo: 429 nM
[29]
  EC50, CellTiter-Glo: 840 nM
[30]
  EC50, CellTiter-Glo: 63.6 nM
[33]
  EC50, CellTiter-Glo: 6150 nM
[34]
  EC50, CellTiter-Glo: 1620 nM
[35]
  EC50, CellTiter-Glo: 6030 nM
[36]
  EC50, CellTiter-Glo: 315 nM
[37]
  EC50, CellTiter-Glo: 6.98 nM
